Values quoted from earlier work in patent US11498743B2, “Cardboard container for active packaging of fresh fruit and vegetables and production method of same” (Universidad Politecnica de Cartagena, priority 2016, dated 2022).

SMILES	Half-life in 1M HCl at 60° C.
OC[C@H]1O[C@@H]2O[C@H]3[C@H](O)[C@@H](O)[C@@H](O[C@H]4[C@H](O)[C@@H](O)[C@@H](O[C@H]5[C@H](O)[C@@H](O)[C@@H](O[C@H]6[C@H](O)[C@@H](O)[C@@H](O[C@H]7[C@H](O)[C@@H](O)[C@@H](O[C@H]1[C@H](O)[C@H]2O)O[C@@H]7CO)O[C@@H]6CO)O[C@@H]5CO)O[C@@H]4CO)O[C@@H]3CO [α-CD, alpha-cyclodextrin]	6.2 h
OC[C@H]1O[C@@H]2O[C@H]3[C@H](O)[C@@H](O)[C@@H](O[C@H]4[C@H](O)[C@@H](O)[C@@H](O[C@H]5[C@H](O)[C@@H](O)[C@@H](O[C@H]6[C@H](O)[C@@H](O)[C@@H](O[C@H]7[C@H](O)[C@@H](O)[C@@H](O[C@H]8[C@H](O)[C@@H](O)[C@@H](O[C@H]1[C@H](O)[C@H]2O)O[C@@H]8CO)O[C@@H]7CO)O[C@@H]6CO)O[C@@H]5CO)O[C@@H]4CO)O[C@@H]3CO [β-CD, beta-cyclodextrin]	5.4 h
OC[C@H]1O[C@@H]2O[C@H]3[C@H](O)[C@@H](O)[C@@H](O[C@H]4[C@H](O)[C@@H](O)[C@@H](O[C@H]5[C@H](O)[C@@H](O)[C@@H](O[C@H]6[C@H](O)[C@@H](O)[C@@H](O[C@H]7[C@H](O)[C@@H](O)[C@@H](O[C@H]8[C@H](O)[C@@H](O)[C@@H](O[C@H]9[C@H](O)[C@@H](O)[C@@H](O[C@H]1[C@H](O)[C@H]2O)O[C@@H]9CO)O[C@@H]8CO)O[C@@H]7CO)O[C@@H]6CO)O[C@@H]5CO)O[C@@H]4CO)O[C@@H]3CO [γ-CD, gamma-cyclodextrin]	3.0 h
